For experiment [1], the system named is asymmetric di-methyl PABP1 in RKO cells. Description: RKO methylation assay (In Cell Western for asymmetric di-methyl PABP1). The class given is cell-based. To be noted: Homo sapiens, 48 hours incubation, read-out: Cellular IC50. In short, it runs like this: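 RKO cells treated 48 h at 37 °C, then fixed, methanol-permeabilized and probed for asymmetric di-methyl PABP1 (16 h, 4 °C) with DRAQ5 counterstain; 800/700 nm intensity ratio read.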

Experiment [2] has as its target T1, Human CARM1 (PRMT4) (Homo sapiens, UniProt Q86X55).
T1 construct: Flag-CARM1-His was eluted with 200 ug/ml FLAG peptide in buffer A; made in house; host or cells: HEK 293F cells infected with recombinant baculovirus (pFastBacMam)
Description: CARM1 enzyme assay on peptide substrate (3H-SAM Flashplate). To be noted: CARM1 0.25 nM, 3H-SAM 30 nM, peptide 250 nM; read-out: Biochem IC50. The experiment is classed as biochemical. From the text:
S-adenosylmethionine (SAM), S-adenosylhomocysteine (SAH), bicine, Tween20, dimethylsulfoxide (DMSO), bovine skin gelatin (BSG), sodium butyrate and Tris(2-carboxyethyl)phosphine hydrochloride solution (TCEP) were purchased from Sigma-Aldrich at the highest level of purity possible. ^3H-SAM was purchase from American Radiolabeled Chemicals with a specific activity of 80 Ci/mmol. 384-well streptavidin Flashplates were purchased from PerkinElmer.
Peptide representative of human histone H3 residues 16-30 was synthesized with an N-terminal linker-affinity tag motif and a C-terminal amide cap by 21st Century Biochemicals. The peptide was purified by high-performance liquid chromatography (HPLC) to greater than 95% purity and confirmed by liquid chromatography mass spectrometry (LC-MS). The sequence was Biot-Ahx-[…]-amide and contained a monomethylated arginine at position 26 (SEQ ID NO.:1).
Human CARM1 (PRMT4) (NM_199141.1) transcript clone was amplified from an HEK 293 cDNA library, incorporating a flanking 5′ sequence encoding a FLAG tag ([…]) (SEQ ID NO.:2) fused directly to Ala 2 of CARM1 and 3′ sequence encoding a hexa His sequence ([…]) (SEQ ID NO.:3) fused directly to Ser 608. The gene sequence encoding isoform1 containing a deletion of amino acids 539-561 was amplified subsequently and subcloned into pFastBacMam (Viva Biotech).
Recombinant baculovirus were generated according to Bac-to-Bac kit instructions (Life Technologies). Protein over-expression was accomplished by infecting exponentially growing HEK 293F cell culture at 1.3×10^6 cell/ml with virus (MOI=10) in the presence of 8 mM sodium butyrate. Infections were carried out at 37° C. for 48 hours, harvested by centrifugation, and stored at −80° C. for purification.
Column was washed with 500 mM NaCl in buffer A and Flag-CARM1-His was eluted with 200 ug/ml FLAG peptide in buffer A. Pooled fractions were dialyzed in 20 mM Tris, 150 mM NaCl, 5% glycerol and 1 mM DTT, pH 7.8. The purity of recovered protein was 94.
The assays were all performed in a buffer consisting of 20 mM Bicine (pH=7.6), 1 mM TCEP, 0.005% BSG, and 0.002% Tween 20, prepared on the day of use. Compounds in 100% DMSO (1 ul) were spotted into a polypropylene 384-well V-bottom plates (Greiner) using a Platemate Plus outfitted with a 384-channel head (Thermo Scientific). DMSO (1 ul) was added to Columns 11, 12, 23, 24, rows A-H for the maximum signal control and 1 ul of SAH, a known product and inhibitor of CARM1, was added to columns 11, 12, 23, 24, rows I—P for the minimum signal control. A cocktail (40 ul) containing the CARM1 enzyme was added by Multidrop Combi (Thermo-Fisher). The compounds were allowed to incubate with CARM1 for 30 min at room temperature, then a cocktail (10 ul) containing ^3H-SAM and peptide was added to initiate the reaction (final volume=51 ul). The final concentrations of the components were as follows: CARM1 was 0.25 nM, ^3H-SAM was 30 nM, peptide was 250 nM, SAH in the minimum signal control wells was 1 mM, and the DMSO concentration was 2%. The assays were stopped by the addition of non-radiolabeled SAM (10 ul) to a final concentration of 300 uM, which dilutes the ^3H-SAM to a level where its incorporation into the peptide substrate is no longer detectable. 50 ul of the reaction in the 384-well polypropylene plate was then transferred to a 384-well Flashplate and the biotinylated peptides were allowed to bind to the streptavidin surface for at least 1 hour before being washed once with 0.1% Tween20 in a Biotek ELx405 plate washer. The plates were then read in a PerkinElmer TopCount plate reader to measure the quantity of ^3H-labeled peptide bound to the Flashplate surface, measured as disintegrations per minute (dpm) or alternatively, referred to as counts per minute (cpm).
where dpm=disintegrations per minute, cmpd=signal in assay well, and min and max are the respective minimum and maximum signal controls. […]

T1 sequence (Q86X55 other isoform, or with tags, fused parts or gaps): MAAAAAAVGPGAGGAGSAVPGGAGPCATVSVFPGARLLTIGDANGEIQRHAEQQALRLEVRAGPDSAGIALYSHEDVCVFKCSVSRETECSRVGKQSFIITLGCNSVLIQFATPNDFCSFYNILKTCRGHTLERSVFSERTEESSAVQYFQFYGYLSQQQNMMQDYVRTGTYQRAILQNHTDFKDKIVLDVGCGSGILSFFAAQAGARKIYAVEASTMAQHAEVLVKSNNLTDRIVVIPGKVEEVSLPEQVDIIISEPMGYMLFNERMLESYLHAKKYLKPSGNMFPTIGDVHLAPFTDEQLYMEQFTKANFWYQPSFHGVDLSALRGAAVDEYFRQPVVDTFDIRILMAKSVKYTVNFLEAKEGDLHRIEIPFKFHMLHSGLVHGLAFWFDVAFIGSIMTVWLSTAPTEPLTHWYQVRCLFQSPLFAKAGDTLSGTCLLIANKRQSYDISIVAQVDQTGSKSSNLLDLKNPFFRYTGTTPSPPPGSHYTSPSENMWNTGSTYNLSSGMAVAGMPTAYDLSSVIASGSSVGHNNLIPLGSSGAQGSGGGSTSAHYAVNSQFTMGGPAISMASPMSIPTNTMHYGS

By IC50 is commonly meant the point on the concentration scale where inhibition reaches its midpoint. For `CNCC(O)COc1cccc(-c2nc(NC3CCOC3)c3cnn(C(C)C)c3n2)c1` (stereo not drawn) [Example 10-5], the results for the 50% inhibitory concentration (IC50) in experiment [1] and in experiment [2] were 10 to 20 µM and less than 0.1 µM, respectively.
On the same counts, the results for `CNCC(O)COc1cccc(-c2cc(N[C@H]3CCOC3)n3ncc(C(C)C)c3n2)c1` (stereo partly drawn) [Example 10-6] are greater than 20 µM and less than 0.1 µM.
`CC(C)c1cnn2c(N3CCOCC3)cc(-c3cccc(OC[C@H](O)CN)c3)nc12` [Example 10-8]: the IC50 in experiment [1] was greater than 20 µM; in experiment [2], less than 0.1 µM.
On the same counts, the results for `CN(c1cc(-c2cccc(OCC(O)CN)c2)nc2c(C(C)(C)C)cnn12)C1CCOCC1` (stereo not drawn) [Example 10-9] are greater than 20 µM and 0.1 to 1 µM.
For `CNCC(O)COc1cc(C#N)cc(-c2cc(NC3CCOCC3)c3cnn(C(C)C)c3n2)c1` (stereo not drawn) [Example 11-4], in that order: greater than 20 µM and 0.1 to 1 µM.
For `NCC(O)COc1cccc(-c2nc(NCc3cccnc3)c3cnn(C4CC4)c3n2)c1` (stereo not drawn) [Example 11-5], in that order: greater than 20 µM and 0.1 to 1 µM.
`CNCC(O)COc1cccc(-c2cc(N[C@@H]3CCOC3)n3ncc(C(C)C)c3n2)c1` (stereo partly drawn) [Example 11-6]: the values for the IC50 in experiment [1] and in experiment [2] were greater than 20 µM and less than 0.1 µM, respectively.
On to `CC(C)c1cnn2c(N(C)C3CCOCC3)cc(-c3cccc(OCC(O)CN)c3)nc12` (stereo not drawn) [Example 11-8], for which the figures for the IC50 in experiment [1] and in experiment [2] were greater than 20 µM and 0.1 to 1 µM, respectively.
For `CNCC(O)COc1cccc(-c2cc(NC(=O)NC)c3cnn(C(C)C)c3n2)c1` (stereo not drawn) [Example 11-9], the IC50 is greater than 20 µM in experiment [1] and 0.1 to 1 µM in experiment [2].
In the case of `CNCC(O)COc1cc(-c2cc(N3CCOCC3)c3cnn(C(C)C)c3n2)cc(C2CC2)c1` (stereo not drawn) [Example 12-4], the concentration for half-maximal inhibition (IC50) is greater than 20 µM in experiment [1] and 0.1 to 1 µM in experiment [2].
Regarding `NCC(O)COc1cccc(-c2nc(NCc3ccncc3)c3cnn(C4CC4)c3n2)c1` (stereo not drawn) [Example 12-5], the IC50 is greater than 20 µM in experiment [1] and 0.1 to 1 µM in experiment [2].
Regarding `CNCC(O)COc1cccc(-c2cc(N(C)CCOC)n3ncc(C(C)C)c3n2)c1` (stereo not drawn) [Example 12-6], the figures for the IC50 in experiment [1] and in experiment [2] were greater than 20 µM and less than 0.1 µM, respectively.
In the case of `CC(C)(C)c1cnn2c(NC3CCOCC3)cc(-c3cccc(OCC(O)CN)c3)nc12` (stereo not drawn) [Example 12-8], the figures for the IC50 in experiment [1] and in experiment [2] were greater than 20 µM and less than 0.1 µM, respectively.
On the same counts, the results for `CNCC(O)COc1cc(Cl)cc(-c2cc(N3C[C@H]4CC[C@@H](C3)O4)n3ncc(C(C)C)c3n2)c1` (stereo partly drawn) [Example 12-9] are greater than 20 µM and 0.1 to 1 µM.
On the same counts, the results for `CNCC(O)COc1cc(NC)cc(-c2cc(NC3CCOCC3)c3cnn(C(C)C)c3n2)c1` (stereo not drawn) [Example 13-4] are 10 to 20 µM and less than 0.1 µM.
In the case of `NCC(O)COc1cccc(-c2nc(NCc3ccccn3)c3cnn(C4CC4)c3n2)c1` (stereo not drawn) [Example 13-5], the results for the IC50 in experiment [1] and in experiment [2] were greater than 20 µM and 0.1 to 1 µM, respectively.
On the same counts, the results for `CNCC(O)COc1cccc(-c2cc(N(C)[C@@H]3CCOC3)n3ncc(C(C)C)c3n2)c1` (stereo partly drawn) [Example 13-6] are greater than 20 µM and less than 0.1 µM.
For `COc1cc(OCC(O)CN)cc(-c2cc(N(C3CCOCC3)C3CC3)n3ncc(C(C)C)c3n2)c1` (stereo not drawn) [Example 13-8], the IC50 in experiment [1] is greater than 20 µM; in experiment [2] it was 0.1 to 1 µM.
With `CC(C)n1ncc2c(N3CCOCC3)cc(-c3cccc(CCC(O)CN)c3)nc21` (stereo not drawn) [Example 13-9], the IC50 in experiment [1] was greater than 20 µM; in experiment [2] it was 0.1 to 1 µM.
On to `CNCC(O)COc1cc(OC)cc(-c2cc(NC3CCOCC3)c3cnn(C(C)C)c3n2)c1` (stereo not drawn) [Example 14-4], for which the IC50 in experiment [1] is greater than 20 µM; in experiment [2] it was less than 0.1 µM.
As for `Cn1ccc(CNc2nc(-c3cccc(OCC(O)CN)c3)nc3c2cnn3C2CC2)n1` (stereo not drawn) [Example 14-5], the IC50 was greater than 20 µM in experiment [1] and 0.1 to 1 µM in experiment [2].
For `CCN(c1cc(-c2cc(OC)cc(OCC(O)CN)c2)nc2c(C(C)C)cnn12)C1CCOCC1` (stereo not drawn) [Example 14-8], in that order: greater than 20 µM and less than 0.1 µM.
On the same counts, the results for `CNCC(O)COc1cccc(-c2nc(NCc3cccc4ccnn34)c3cnn(C4CC4)c3n2)c1` (stereo not drawn) [Example 14-9] are greater than 20 µM and 0.1 to 1 µM.
On the same counts, the results for `Cc1cc(CNc2nc(-c3cccc(OCC(O)CN)c3)nc3c2cnn3C2CC2)no1` (stereo not drawn) [Example 15-5] are greater than 20 µM and 0.1 to 1 µM.
On to `C#Cc1cc(OCC(O)CNC)cc(-c2cc(N3CCOCC3)n3ncc(C(C)C)c3n2)c1` (stereo not drawn) [Example 15-6], for which the IC50 in experiment [1] was greater than 20 µM; in experiment [2], less than 0.1 µM.
For `CC(C)(C)c1cnn2c(NC3CCOCC3)cc(-c3cc(Cl)cc(OCC(O)CN)c3)nc12` (stereo not drawn) [Example 15-8], the 50% inhibitory concentration (IC50) was greater than 20 µM in experiment [1] and 0.1 to 1 µM in experiment [2].
On the same counts, the results for `CNCC(O)COc1cc(-c2cc(NC3CCOCC3)c3cnn(C(C)C)c3n2)cc(C2CC2)c1` (stereo not drawn) [Example 16-4] are greater than 20 µM and less than 0.1 µM.
For `NCC(O)COc1cccc(-c2nc(N3CC4CCC(C3)O4)c3cnn(C4CC4)c3n2)c1` (stereo not drawn) [Example 16-5], in that order: greater than 20 µM and less than 0.1 µM.
For `CNCC(O)COc1cc(OC)cc(-c2cc(N3[C@@H]4CC[C@@H]3COC4)c3cnn(C(C)C)c3n2)c1` (stereo partly drawn) [Example 17-4], the IC50 was 10 to 20 µM in experiment [1] and less than 0.1 µM in experiment [2].
For the compound `NCC(O)COc1cccc(-c2nc(N3C4CCC3COC4)c3cnn(C4CC4)c3n2)c1` (stereo not drawn) [Example 17-5], the figures for the IC50 in experiment [1] and in experiment [2] were greater than 20 µM and less than 0.1 µM, respectively.
On the same counts, the results for `C=Cc1cc(OCC(O)CNC)cc(-c2cc(N3CCOCC3)n3ncc(C(C)C)c3n2)c1` (stereo not drawn) [Example 17-6] are greater than 20 µM and 0.1 to 1 µM.
On the same counts, the results for `CNCC(O)COc1cc(OC)cc(-c2cc(N3CCOCC3)n3ncc(C(=O)OC)c3n2)c1` (stereo not drawn) [Example 17-8] are 10 to 20 µM and less than 0.1 µM.
On the same counts, the results for `CNCC(O)COc1cccc(-c2nc(NCc3cccnc3)c3cnn(C4CC4)c3n2)c1` (stereo not drawn) [Example 17-9] are greater than 20 µM and 0.1 to 1 µM.
For `NCC(O)COc1cccc(-c2nc(NCc3nccs3)c3cnn(C4CC4)c3n2)c1` (stereo not drawn) [Example 18-5], the IC50 in experiment [1] was greater than 20 µM; in experiment [2] it was less than 0.1 µM.
For `CNCC(O)COc1cc(NC)cc(-c2cc(N(C)C3CCOCC3)c3cnn(C(C)C)c3n2)c1` (stereo not drawn) [Example 19-4], in that order: 5 to 10 µM and less than 0.1 µM.
On the same counts, the results for `CNCC(O)COc1cccc(-c2nc(NC3CCOCC3)c3cnn(C4CC4)c3n2)c1` (stereo not drawn) [Example 19-5] are greater than 20 µM and 0.1 to 1 µM.
On to `CNCC(O)COc1cccc(-c2cc(NC3CCOCC3)n3ncc(C(C)(C)C)c3n2)c1` (stereo not drawn) [Example 19-6], for which the IC50 was greater than 20 µM in experiment [1] and less than 0.1 µM in experiment [2].
For `CNCC(O)COc1cccc(-c2nc(NCc3cc(C)on3)c3cnn(C4CC4)c3n2)c1` (stereo not drawn) [Example 19-9], in that order: greater than 20 µM and 0.1 to 1 µM.
Consider `CNCC(O)COc1cc(OC)cc(-c2cc(NC3CCOCC3)c3c(C)nn(C(C)C)c3n2)c1` (stereo not drawn) [Example 20-4], for which the IC50 in experiment [1] was 10 to 20 µM; in experiment [2], less than 0.1 µM.

The values are drawn from patent US20170283440A1, “CARM1 INHIBITORS AND USES THEREOF” (Epizyme, Inc., priority 2014, published 2017).
